Measurements: paper PMC9917023, “Stabilization of Monomeric Tau Protein by All D-Enantiomeric Peptide Ligands as Therapeutic Strategy for Alzheimer’s Disease and Other Tauopathies” (International Journal of Molecular Sciences, 2023)
Non-standard residues stand in square brackets, D forms with d. Residues, ends and D or L forms follow the SMILES beside them.

Key:
[1] = Stability in simulated intestinal fluid; assay type: in vitro ADME
Protocol: Figure 12 Stability assay of TF2D-5 and TF2D-5a using different simulated human body fluids. (A) Stability of compounds in simulated gastric fluid (SGF). The simulated gastric fluid consisted of 2 mg/mL sodium chloride, 3.2 mg/mL pepsin, and 80 mM HCl; pH 1. (B) Stability of TF2D-5 and TF2D-5a in simulated intestinal fluid (SIF). Simulated intestinal fluid consisted of 6.8 mg/mL potassium dihydrogen phosphate, 10 mg/mL pancreas powder, and 15.4 mM NaOH; pH 6.8. (C) Stability of TF2D-5 and TF2D-5a in human blood plasma. K3EDTA human blood plasma was purchased from BioTrend. (D) Stability of TF2D-5 and TF2D-5a in human liver microsomes. Human liver microsomes consisted of 6 mg/mL protein (containing Cytochrome P450 (CYP) enzymes), 75 mM sucrose, 1.3 mM NADPH, 3.3 mM D-glucose-6-phosphat, 0.2 u/mL D-glucose-6-phosphat dehydrogenase, 3.3 mM magnesium chloride, and 100 mM potassium phosphate; pH 7.4.
The stability of the compounds was tested according to Elfgen et al. and Schemmert et al. Exceptions included the extraction of plasma, simulated gastric fluid (SGF), and simulated intestinal fluid (SIF) samples. These were obtained by the addition of 12.5 µL 0.35 M ZnSO4, followed by vortexing, the addition of 12.5 µL 0.5 M HCl, additional vortexing, and centrifugation at 14,000× g for 10 min at 4 °C.

[2] = target: T1, R3 domain of tau (Homo sapiens, UniProt P10636); assay: SPR measurement (Biacore 8K, single cycle); assay type: binding; settings: single cycle kinetics, peptide immobilized on CM5 chip, R3 (304-336) 3.125-100 nM as analyte, PBS pH 7.4, 0.05% Tween20, 1:1 fit
T1 construct: purchased CASLO ApS, Lyngby, Denmark; host or cells: synthetic peptide
T1 sequence (P10636 622-652 limits assumed): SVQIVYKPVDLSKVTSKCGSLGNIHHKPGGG
Protocol: Figure 8 SPR measurements of TF2D-5 and TF2D-5a with monomeric full-length tau 441 and tau repeat region 3. […] The concentration of tau during the measurement ranged from 3.125 nM to 25 nM. […] Tau was used in concentrations ranging from 31.25 nM to 500 nM. SPR measurements of A and B were recorded on a T200 Biacore instrument, the corresponding compound was immobilized on a CM5 chip from Cytiva while monomeric tau served as analyte. Tests were performed with TBS pH 7.4, 0.05% Tween20 and 10 µM DTT as running buffer. Fit calculation was completed with the internal evaluation software of the T200 Biacore. A 1:1 model was used for both fits. […] The concentrations for the single cycle measurement ranged from 3.125 nM to 100 nM. Measurements of C were performed on a Biacore 8K using a CM5 chip from Cytiva. TF2D-5a was immobilized on the chip while the R3 region of tau was used as analyte. PBS pH 7.4 with 0.05% Tween20 as used as running buffer. Fit calculation was performed using the Biacore insight evaluation software and a 1:1 model. […]
Measurements of TF2D-5a against the R3 domain of tau were performed on a Biacore 8K (GE Healthcare, Uppsala, Sweden) using a single cycle experiment. […] The data were analyzed using the Biacore insight evaluation software 3.0.12.15655 using a 1:1 fit.

stability in simulated intestinal fluid ([1]; SIF: 6.8 mg/mL KH2PO4, 10 mg/mL pancreas powder, 15.4 mM NaOH, pH 6.8) | Kd [2] | metabolised at 8 h ([1]; simulated intestinal fluid with pancreas powder, SIF pH 6.8, 10 mg/mL pancreas powder, after about 8 h, read-out: decrease of level in simulated intestinal fluid) | Structure (SMILES)
stable in simulated intestinal fluid |  |  | CC[C@@H](C)[C@@H](NC(=O)[C@@H](Cc1c[nH]cn1)NC(=O)CNC(=O)CNC(=O)[C@H]1CCCN1C(=O)[C@H](NC(=O)[C@@H](CCCCN)NC(=O)[C@@H](Cc1ccccc1)NC(=O)[C@@H](CC(C)C)NC(=O)[C@H](NC(=O)[C@@H](CCC(N)=O)NC(=O)[C@@H](Cc1ccc(O)cc1)NC(=O)CNC(=O)CNC(=O)[C@H](N)CC(=O)O)[C@H](C)CC)[C@H](C)CC)C(=O)N[C@H](Cc1c[nH]cn1)C(N)=O [TF2D-5] (H-[dD]GG[dY][dQ][dI][dL][dF][dK][dI][dP]GG[dH][dI][dH]-NH2)
 | 7.06 pM | 27.8% | CC[C@@H](C)[C@@H](NC(=O)[C@@H](Cc1c[nH]cn1)NC(=O)CNC(=O)CNC(=O)[C@H]1CCCN1C(=O)[C@H](NC(=O)[C@@H](CCCCN)NC(=O)[C@@H](Cc1ccccc1)NC(=O)[C@@H](CC(C)C)NC(=O)[C@H](NC(=O)[C@@H](CCC(N)=O)NC(=O)[C@@H](Cc1ccc(O)cc1)NC(=O)CNC(=O)CNC(=O)[C@H](N)CC(=O)O)[C@H](C)CC)[C@H](C)CC)C(=O)N[C@H](Cc1c[nH]cn1)C(=O)N[C@H](CCCNC(=N)N)C(=O)N[C@H](CCCNC(=N)N)C(=O)N[C@H](CCCNC(=N)N)C(=O)N[C@H](CCCNC(=N)N)C(=O)N[C@H](CCCNC(=N)N)C(N)=O [TF2D-5a] (H-[dD]GG[dY][dQ][dI][dL][dF][dK][dI][dP]GG[dH][dI][dH][dR][dR][dR][dR][dR]-NH2)
